Test results taken from patent publication US11040952B2, “Phthalazinone compound, method for preparation thereof, pharmaceutical composition thereof, and use thereof” (SHANGHAI INSTITUTE OF MATERIA MEDICA, CHINESE ACADEMY OF …, priority 2017, dated 2021).

Assays:
[1] = MTT assay for cytotoxicity; type: cell-based, Human; details: human, HepG2.2.15 cells, half (50%) lethal concentration
Experimental: (§1) Human hepatoblastoma cell line HepG2.2.15 stably transfected with full-length HBV (provided by Shanghai Institute of Materia Medica, Chinese Academy of Sciences)
(§2) HepG2.2.15 cells were cultured and passaged according to conventional methods. DMEM containing 10% (v/v) bovine serum and the selective antibiotic G418 was used as a medium, the cells were cultured in an incubator at 37° C. under 5% CO2 for 8 days (the medium was exchanged on the 4th day).
(§3) The test compounds were formulated with DMSO into a 40 mM stock solution, which was then prepared into a solution at the defined highest concentration using a DMEM medium containing 10% Hyclone™ Fetal Bovine Serum, followed by diluting the same; the positive drug was lamivudine, which was also prepared into a solution at the defined concentration with the DMEM medium containing 10% Hyclone™ Fetal Bovine Serum.
HepG2.2.15 cells were seeded at 5×10^3 cells/well in a 96-well plate, and cultured for eight days in the presence of the compounds according to the above method, and then 200 μl of the supernatant was taken out, followed by addition of the MTT solution. After 4 hours of culture, a lysate was added. After 12 hours of culture, the OD570 was measured on a microplate reader. By comparing with the absorbance of the control well, the percentage of viable cells was calculated, and CC50, the concentration required for the reduction of cell viability by 50%, was calculated.

HBV = HBV DNA content in the supernatant of cell culture (real-time PCR); type: cell-based, hepatitis B virus (HBV); details: Hepatitis B virus, HepG2.2.15, 192 h, inhibition of HBV DNA replication, HepG2.2.15 supernatant, 8 days
Experimental: as §1, §2, §3
HepG2.2.15 cells were treated with compounds at different concentrations for 8 days (the medium was exchanged on the 4th day), and the supernatant was aspirated, and the HBV DNA contained in the mature virus particles in the supernatant was quantitated by using a real-time PCR method.
1) The supernatant DNA from a 96-well plate, 200 μl/well, was collected, wherein the contents in the duplicate wells were collected into a same EP tube, and centrifuged at 4000 rcf for 5 min, and the supernatant was collected;
2) 200 μl of the supernatant was added into a 1.5 ml EP tube, added with 20 μl of proteinase K and 200 μl of Buffer AL (Qiagen, DNeasy® Blood & Tissue Kit), vortexed to be mixed thoroughly, and incubated at 56° C. for 10 min;
3) 200 μl of ethanol was added and vortexed to be mixed thoroughly;
4) all the liquid obtained from step 3) was added into a DNeasy Mini spin column (Qiagen, DNeasy® Blood & Tissue Kit) placed in a 2 ml waste liquid collection tube, and centrifuged at 6000 rcf for 1 min, and the supernatant was discarded;
5) the DNeasy Mini spin column was placed in a new 2 ml waste liquid collection tube, added with 500 μl of Buffer AW1 (Qiagen, DNeasy® Blood & Tissue Kit), and centrifuged at 6000 rcf for 1 min, and the supernatant was discarded;
6) the DNeasy Mini spin column was placed in a new 2 ml waste liquid collection tube, added with 500 μl of Buffer AW2, (Qiagen, DNeasy® Blood & Tissue Kit), and centrifuged at 20000 rcf for 3 min, and the supernatant was discarded;
7) the DNeasy Mini spin column was placed in anew 1.5 ml EP tube, 50 μl of Buffer AE (Qiagen, DNeasy® Blood & Tissue Kit) was pipetted and directly applied onto the membrane of the DNeasy Mini spin column, which was then left at room temperature for 5 min, and centrifuged at 6000 rcf for 1 min to elute the DNA from the membrane, the DNeasy Mini spin column was discarded, and the DNA sample was collected and stored at −20° C.
1) Standard curve: 1e^7-1e^4 IU/ml, the sample amount was 1 μl, a blank well was set so as to check whether the reaction system is polluted or not;
2) 1 μl of a DNA sample was added in sequence;
3) Addition of enzyme and reaction buffer: two tubes of the reaction solution were first added into the enzyme, mixed well and centrifuged slightly, placed on ice, added with the sample, followed by addition of 19 μl of the enzyme reaction solution, wherein, during the addition, the DNA sample should be sure of not being touched to cause contamination;
4) the sample was sealed with a sealing film and centrifuged;
Stage 2: 10 cycles • Step 1: 93° C., 45 s • Step 2: 55° C., 1 min Stage 3: 45 cycles • Step 1: 93° C., 30 s • Step 2: 55° C., 45 s
Detection: data were collected after completing the step 2 (55° C., 45 s) of the stage 3.
The experimental data were processed by using the Origin software and IC50 was calculated.

Row | SMILES | CC50 at 8 days [1] [µM] | IC50 (HBV) [µM]
1 | COc1cc2c(-c3ccc(C)nc3F)nn(Cc3ccc(C#N)cc3)c(=O)c2cc1OC [Compound V-12] | > 100 | 4.5
2 | Nc1ncc(-c2nn(Cc3ccc(Cl)cc3)c(=O)c3ccccc23)cn1 [II-1] | 41.5 | 3.8
3 | N#Cc1ncc(-c2nn(Cc3ccc(Cl)cc3)c(=O)c3ccccc23)cn1 [II-2] | 32.4 | 4.5
4 | COc1ncc(-c2nn(Cc3ccc(Cl)cc3)c(=O)c3ccccc23)cn1 [II-3] | > 100 | 8.8
5 | Cc1ncc(-c2nn(Cc3ccc(Cl)cc3)c(=O)c3ccccc23)cn1 [II-4] | 97.6 | 7.1
6 | Cc1cnc(-c2nn(Cc3ccc(Cl)cc3)c(=O)c3ccccc23)cn1 [III-1] | 87.8 | 6.2
7 | N#Cc1ccc(Cn2nc(-c3cccnc3)c3ccccc3c2=O)cc1 [IV-1] | > 100 | 5.4
8 | N#Cc1ccc(Cn2nc(-c3cccnc3F)c3ccccc3c2=O)cc1 [IV-2] | > 100 | 1.18
9 | Cc1ncccc1-c1nn(Cc2ccc(C#N)cc2)c(=O)c2ccccc12 [IV-3] | > 100 | 5.5
10 | N#Cc1ccc(Cn2nc(-c3cccnc3C#N)c3ccccc3c2=O)cc1 [IV-4] | > 100 | 3.3
11 | Cc1ccc(-c2nn(Cc3ccc(C#N)cc3)c(=O)c3ccccc23)c(F)n1 [IV-6] | > 100 | 0.8
12 | N#Cc1ccc(Cn2nc(-c3ccc(N)nc3C#N)c3ccccc3c2=O)cc1 [IV-7] | > 100 | 0.8
13 | CNc1ccc(-c2nn(Cc3ccc(C#N)cc3)c(=O)c3ccccc23)c(F)n1 [IV-8] | > 100 | 0.9
14 | CN(C)c1ccc(-c2nn(Cc3ccc(C#N)cc3)c(=O)c3ccccc23)c(F)n1 [IV-9] | > 100 | 1.3
15 | CC(=O)Nc1ccc(-c2nn(Cc3ccc(C#N)cc3)c(=O)c3ccccc23)c(F)n1 [IV-10] | 47.9 | 1.7
16 | N#Cc1ccc(Cn2nc(-c3ccc(N4CCC4)nc3F)c3ccccc3c2=O)cc1 [IV-11] | 98.5 | 0.4
17 | CC(C)(C)Nc1ccc(-c2nn(Cc3ccc(C#N)cc3)c(=O)c3ccccc23)c(F)n1 [IV-12] | 46.3 | 3.7
18 | N#Cc1ccc(Cn2nc(-c3ccc(NC4CC4)nc3F)c3ccccc3c2=O)cc1 [IV-13] | 78.5 | 3.8
19 | CN(C)CCNc1ccc(-c2nn(Cc3ccc(C#N)cc3)c(=O)c3ccccc23)c(F)n1 [IV-14] | > 100 | 1.5
20 | N#Cc1ccc(Cn2nc(-c3ccc(NC4COC4)nc3F)c3ccccc3c2=O)cc1 [IV-16] | 88.3 | 1
21 | [2H]C(c1ccc(C#N)cc1)n1nc(-c2ccc(F)nc2F)c2ccccc2c1=O (stereo not shown) [IV-17] | > 100 | 0.13
22 | [2H]C([2H])(c1ccc(C#N)cc1)n1nc(-c2ccc(F)nc2F)c2ccccc2c1=O [IV-18] | > 100 | 0.21
23 | N#Cc1ccc(Cn2nc(-c3ccc(C4CC4)nc3F)c3ccccc3c2=O)cc1 [IV-19] | > 100 | 0.27
24 | N#Cc1ccc(Cn2nc(-c3ccc(CO)nc3F)c3ccccc3c2=O)cc1 [IV-20] | > 100 | 0.3
25 | CN(C)Cc1ccc(-c2nn(Cc3ccc(C#N)cc3)c(=O)c3ccccc23)c(F)n1 [IV-21] | > 100 | 1.3

Row | SMILES | CC50 at 8 days [1] [µM] | IC50 (HBV) [µM]
26 | COCc1ccc(-c2nn(Cc3ccc(C#N)cc3)c(=O)c3ccccc23)c(F)n1 [IV-22] | > 100 | 3.5
27 | CC(=O)OCc1ccc(-c2nn(Cc3ccc(C#N)cc3)c(=O)c3ccccc23)c(F)n1 [IV-23] | > 100 | 4.5
28 | N#Cc1ccc(Cn2nc(-c3ccc(CN4CCOCC4)nc3F)c3ccccc3c2=O)cc1 [IV-24] | > 100 | 0.35
29 | N#Cc1ccc(Cn2nc(-c3ccc(NCC4CCOCC4)nc3F)c3ccccc3c2=O)cc1 [IV-25] | 54.1 | 1.2
30 | COCCNc1ccc(-c2nn(Cc3ccc(C#N)cc3)c(=O)c3ccccc23)c(F)n1 [IV-26] | > 100 | 0.43
31 | COCCNc1nc(F)c(-c2nn(Cc3ccc(C#N)cc3)c(=O)c3ccccc23)cc1Cl [IV-27] | > 100 | 0.0142
32 | COCCNc1ccc(-c2nn(Cc3ccc(Cl)cc3)c(=O)c3ccccc23)c(F)n1 [IV-28] | 21.3 | 0.191
33 | COCCNc1nc(F)c(-c2nn(Cc3ccc(Cl)cc3)c(=O)c3ccccc23)cc1Cl [IV-29] | 26.6 | 0.0439
34 | N#Cc1ccc(Cn2nc(-c3cc(Cl)c(N)nc3F)c3ccccc3c2=O)cc1 [IV-30] | 10.2 | < 0.0977
35 | COCCOc1ccc(-c2nn(Cc3ccc(C#N)cc3)c(=O)c3ccccc23)c(F)n1 [IV-31] | 109 | 0.452
36 | COCCCNc1ccc(-c2nn(Cc3ccc(C#N)cc3)c(=O)c3ccccc23)c(F)n1 [IV-32] | 43.7 | 0.191
37 | COCCCNc1nc(F)c(-c2nn(Cc3ccc(C#N)cc3)c(=O)c3ccccc23)cc1Cl [IV-33] | 181 | < 0.0977
38 | CCOC(=O)CNc1ccc(-c2nn(Cc3ccc(C#N)cc3)c(=O)c3ccccc23)c(F)n1 [IV-34] | > 100 | 15.7
39 | CCOC(=O)CCCNc1ccc(-c2nn(Cc3ccc(C#N)cc3)c(=O)c3ccccc23)c(F)n1 [IV-35] | > 100 | 1.23
40 | CCOC(=O)CCCNc1nc(F)c(-c2nn(Cc3ccc(C#N)cc3)c(=O)c3ccccc23)cc1Cl [IV-36] | > 100 | 0.482
41 | CN(C)CCNc1nc(F)c(-c2nn(Cc3ccc(C#N)cc3)c(=O)c3ccccc23)cc1Cl [IV-38] | 9.76 | 0.343
42 | CN(C)CCCNc1ccc(-c2nn(Cc3ccc(C#N)cc3)c(=O)c3ccccc23)c(F)n1 [IV-39] | 18.4 | 0.684
43 | CN(C)CCCCNc1ccc(-c2nn(Cc3ccc(C#N)cc3)c(=O)c3ccccc23)c(F)n1 [IV-40] | 18.6 | 0.66
44 | CCOCCNc1ccc(-c2nn(Cc3ccc(C#N)cc3)c(=O)c3ccccc23)c(F)n1 [IV-41] | > 100 | 0.325
45 | CCOCCNc1nc(F)c(-c2nn(Cc3ccc(C#N)cc3)c(=O)c3ccccc23)cc1Cl [IV-42] | 29.8 | 0.292
46 | CCOCCCNc1ccc(-c2nn(Cc3ccc(C#N)cc3)c(=O)c3ccccc23)c(F)n1 [IV-43] | 89.8 | 0.288
47 | CCOCCCNc1nc(F)c(-c2nn(Cc3ccc(C#N)cc3)c(=O)c3ccccc23)cc1Cl [IV-44] | 54.8 | < 0.0977
48 | CC(C)(C)OC(=O)NCCCCNc1ccc(-c2nn(Cc3ccc(C#N)cc3)c(=O)c3ccccc23)c(F)n1 [IV-45] | > 100 | 0.368
49 | CC(C)(C)OC(=O)NCCCCNc1nc(F)c(-c2nn(Cc3ccc(C#N)cc3)c(=O)c3ccccc23)cc1Cl [IV-46] | > 100 | 0.014
50 | CCNCCNc1ccc(-c2nn(Cc3ccc(C#N)cc3)c(=O)c3ccccc23)c(F)n1 [IV-47] | 13 | 1.72
